Data reported in ChEMBL document CHEMBL1671713, “Synergy of caspofungin with human polymorphonuclear granulocytes for killing Candida albicans” (2010).

Experiments:
Assay type in all cases: functional
Candida albicans [1] = test: Potentiation of human polymorphonuclear granulocytes-induced intracellular killing of compound pretreated Candida albicans for 1hr at 2 ug/ml after 90 mins (Rvb =48%)
Candida albicans [2] = test: Potentiation of human polymorphonuclear granulocytes-induced intracellular killing of Candida albicans at 3.2 ug/ml after 90 mins (Rvb =48%)
Candida albicans [3] = test: Potentiation of human polymorphonuclear granulocytes-induced intracellular killing of Candida albicans at 8 ug/ml after 30 mins (Rvb =46%)
Candida albicans [4] = test: Potentiation of compound pretreated human polymorphonuclear granulocytes-induced intracellular killing of Candida albicans at 2 ug/ml after 30 mins (Rvb =46%)
Candida albicans [5] = test: Potentiation of compound pretreated human polymorphonuclear granulocytes-induced intracellular killing of Candida albicans at 8 ug/ml after 90 mins (Rvb =48%)
Candida albicans [6] = test: Potentiation of human polymorphonuclear granulocytes-induced intracellular killing of compound pretreated Candida albicans for 1hr at 3.2 ug/ml after 30 mins (Rvb =46%)
Candida albicans [7] = test: Potentiation of human polymorphonuclear granulocytes-induced intracellular killing of Candida albicans at 8 ug/ml after 60 mins (Rvb =47%)
Candida albicans [8] = test: Potentiation of compound pretreated human polymorphonuclear granulocytes-induced intracellular killing of Candida albicans at 3.2 ug/ml after 60 mins (Rvb =47%)
Candida albicans [9] = test: Potentiation of human polymorphonuclear granulocytes-induced intracellular killing of compound pretreated Candida albicans for 1hr at 8 ug/ml after 30 mins (Rvb =46%)
Candida albicans [10] = test: Potentiation of human polymorphonuclear granulocytes-induced intracellular killing of compound pretreated Candida albicans for 1hr at 3.2 ug/ml after 90 mins (Rvb =48%)
Candida albicans [11] = test: Potentiation of compound pretreated human polymorphonuclear granulocytes-induced intracellular killing of Candida albicans at 3.2 ug/ml after 90 mins (Rvb =48%)
Candida albicans [12] = test: Potentiation of human polymorphonuclear granulocytes-induced intracellular killing of Candida albicans at 3.2 ug/ml after 30 mins (Rvb =46%)
Candida albicans [13] = test: Potentiation of human polymorphonuclear granulocytes-induced intracellular killing of compound pretreated Candida albicans for 1hr at 8 ug/ml after 90 mins (Rvb =48%)
Candida albicans [14] = test: Potentiation of human polymorphonuclear granulocytes-induced intracellular killing of Candida albicans at 2 ug/ml after 30 mins (Rvb =46%)
Candida albicans [15] = test: Potentiation of compound pretreated human polymorphonuclear granulocytes-induced intracellular killing of Candida albicans at 8 ug/ml after 30 mins (Rvb =46%)
Candida albicans [16] = test: Potentiation of human polymorphonuclear granulocytes-induced intracellular killing of Candida albicans at 8 ug/ml after 90 mins (Rvb =48%)
Candida albicans [17] = test: Potentiation of compound pretreated human polymorphonuclear granulocytes-induced intracellular killing of Candida albicans at 2 ug/ml after 90 mins (Rvb =48%)
Candida albicans [18] = test: Potentiation of compound pretreated human polymorphonuclear granulocytes-induced intracellular killing of Candida albicans at 8 ug/ml after 60 mins (Rvb =47%)
Candida albicans [19] = test: Potentiation of human polymorphonuclear granulocytes-induced intracellular killing of compound pretreated Candida albicans for 1hr at 3.2 ug/ml after 60 mins (Rvb =47%)
Candida albicans [20] = test: Potentiation of compound pretreated human polymorphonuclear granulocytes-induced intracellular killing of Candida albicans at 3.2 ug/ml after 30 mins (Rvb =46%)
Candida albicans [21] = test: Potentiation of human polymorphonuclear granulocytes-induced intracellular killing of Candida albicans at 3.2 ug/ml after 60 mins (Rvb =47%)
Candida albicans [22] = test: Potentiation of compound pretreated human polymorphonuclear granulocytes-induced intracellular killing of Candida albicans at 2 ug/ml after 60 mins (Rvb =47%)
Candida albicans [23] = test: Potentiation of human polymorphonuclear granulocytes-induced intracellular killing of Candida albicans at 2 ug/ml after 60 mins (Rvb =47%)
Candida albicans [24] = test: Potentiation of human polymorphonuclear granulocytes-induced intracellular killing of compound pretreated Candida albicans for 1hr at 2 ug/ml after 60 mins (Rvb =47%)
Candida albicans [25] = test: Potentiation of human polymorphonuclear granulocytes-induced intracellular killing of compound pretreated Candida albicans for 1hr at 2 ug/ml after 30 mins (Rvb =46%)
Candida albicans [26] = test: Potentiation of human polymorphonuclear granulocytes-induced intracellular killing of compound pretreated Candida albicans for 1hr at 8 ug/ml after 60 mins (Rvb =47%)
Candida albicans [27] = test: Potentiation of human polymorphonuclear granulocytes-induced intracellular killing of Candida albicans at 2 ug/ml after 90 mins (Rvb =48%)

`CC[C@H](C)C[C@H](C)CCCCCCCCC(=O)N[C@H]1C[C@@H](O)[C@@H](NCCN)NC(=O)[C@@H]2[C@@H](O)CCN2C(=O)[C@H]([C@H](O)CCN)NC(=O)[C@H]([C@H](O)[C@@H](O)c2ccc(O)cc2)NC(=O)[C@@H]2C[C@@H](O)CN2C(=O)[C@H]([C@@H](C)O)NC1=O` [CASPOFUNGIN] showed an Activity (Candida albicans [1]) of 82%, an Activity (Candida albicans [2]) of 86% and an Activity (Candida albicans [3]) of 74%. It also gave an Activity (Candida albicans [4]) of 72%, an Activity (Candida albicans [5]) of 94% and an Activity (Candida albicans [6]) of 63%. For the same molecule, the Activity (Candida albicans [7]) was 83%, the Activity (Candida albicans [8]) was 84% and the Activity (Candida albicans [9]) was 63%. For the same molecule, the Activity (Candida albicans [10]) was 78%, the Activity (Candida albicans [11]) was 91% and the Activity (Candida albicans [12]) was 72%. For the same molecule, the Activity (Candida albicans [13]) was 72%, the Activity (Candida albicans [14]) was 71% and the Activity (Candida albicans [15]) was 79%. The Activity (Candida albicans [16]) was 83%, the Activity (Candida albicans [17]) was 82% and the Activity (Candida albicans [18]) was 82%. The Activity (Candida albicans [19]) was 74%, the Activity (Candida albicans [20]) was 69% and the Activity (Candida albicans [21]) was 75%. The Activity (Candida albicans [22]) was 76%, the Activity (Candida albicans [23]) was 72% and the Activity (Candida albicans [24]) was 69%. It also gave an Activity (Candida albicans [25]) of 69%, an Activity (Candida albicans [26]) of 66% and an Activity (Candida albicans [27]) of 75%.
